Patent publication US20140371074A1, “METHOD TO INCREASE PLANT YIELD” (priority 2012, published 2014)

Experiments:
[1] = tested on: soybean variety Asgrow 2933; assay: Field: side dress with 2,4-D Low Vol 4 solution, Laurel, Iowa (Table 3); type: in vivo; conditions: for Percent of control: yield vs untreated control
Description: Plants were grown from Roundup Ready variety Asgrow 2933 seed that was treated with accelron (Monsanto) prior to planting. Plants were side dressed by application with a 3-point cultivator modified to spray on the ground in front of the shanks, the shanks then mix the 2,4-D mixture with the soil and move the mixture closer to the plant roots. Plants were treated with between 1X and 4X of 2,4-D Low Vol 4 solution, where 1X is equivalent to approximately 0.19 pounds acid equivalent of 2,4-D. Plants were grown with a row width of 30 inches and row length of 562 feet.

[2] = tested on: soybean Latham 2767 Roundup Ready; assay: Field: seed treatment with 2,4-D solution 1X-10X, Laurel, Iowa (Table 6); type: in vivo; conditions: 1X~0.0002968 lb a.e.
Description: Previously untreated soybean seeds were treated with between 1X to 10X of 2,4-D solution, where 1X is equivalent to approximately 0.0002968 pounds acid equivalent of 2,4-D. The seed variety was Latham 2767 Roundup Ready seeds and seeds were planted in Laurel, Iowa with a row width of 30 inches. Plants were sprayed with foliar insecticide and fungicide.

[3] = 1X side dress (1X~0.19 lb a.e.)
[4] = 2X side dress (1X~0.19 lb a.e.)
[5] = 3X side dress (1X~0.19 lb a.e.)
[6] = 4X side dress (1X~0.19 lb a.e.)

`O=C(O)COc1ccc(Cl)cc1Cl` [2,4-D, 2,4-Dichlorophenoxyacetic acid] was tested. Which “Yield (Bushels/acre at 13% moisture)” value [1, 3] did it give?
Its value is 58.3 Bushels/acre.

What about the Harvested weight ([1]; 1X side dress (1X~0.19 lb a.e.), 12 rows) of the same compound?
Its Harvested weight is 1292 g.

And the Percent of control [1, 3]?
Its Percent of control is 110%.

What about the “Yield (Bushels/acre at 13% moisture)” value [1, 4] of the same compound?
The value was 68.3 Bushels/acre.

And the Harvested weight ([1]; 2X side dress (1X~0.19 lb a.e.), 8 rows)?
The Harvested weight was 1016 g.

And the Percent of control [1, 4]?
Its Percent of control is 130%.

And the “Yield (Bushels/acre at 13% moisture)” value [1, 5]?
Its value is 62.8 Bushels/acre.

And the Harvested weight ([1]; 3X side dress (1X~0.19 lb a.e.), 16 rows)?
Its Harvested weight is 1844 g.

What about the Percent of control [1, 5] of the same compound?
Its Percent of control is 120%.

And the “Yield (Bushels/acre at 13% moisture)” value [1, 6]?
Its value is 70.8 Bushels/acre.

And the Harvested weight ([1]; 4X side dress (1X~0.19 lb a.e.), 16 rows)?
Its Harvested weight is 2088 g.

And the Percent of control [1, 6]?
Its Percent of control is 135%.

And the “plant yield (in words)” value ([1]; side dress treatment 1X-4X vs untreated)?
Its value is “greatly increases plant yield”.

And the Harvested weight ([2]; 1X seed treatment)?
Its Harvested weight is 125 g.

What about the “Yield (Bushels/acre at 13% moisture)” value ([2]; 1X seed treatment) of the same compound?
The value was 60.71 Bushels/acre.

What about the Harvested weight ([2]; 2X seed treatment) of the same compound?
Its Harvested weight is 90 g.

What about the “Yield (Bushels/acre at 13% moisture)” value ([2]; 2X seed treatment) of the same compound?
The value was 42.26 Bushels/acre.

What about the Harvested weight ([2]; 3X seed treatment) of the same compound?
The Harvested weight was 100 g.

And the “Yield (Bushels/acre at 13% moisture)” value ([2]; 3X seed treatment)?
Its value is 45.23 Bushels/acre.

What about the Harvested weight ([2]; 4X seed treatment) of the same compound?
Its Harvested weight is 100 g.

And the “Yield (Bushels/acre at 13% moisture)” value ([2]; 4X seed treatment)?
The value was 44.23 Bushels/acre.

What about the Harvested weight ([2]; 5X seed treatment) of the same compound?
The Harvested weight was 105 g.

And the “Yield (Bushels/acre at 13% moisture)” value ([2]; 5X seed treatment)?
The value was 45.33 Bushels/acre.

What about the Harvested weight ([2]; 6X seed treatment) of the same compound?
The Harvested weight was 110 g.

And the “Yield (Bushels/acre at 13% moisture)” value ([2]; 6X seed treatment)?
The value was 48.22 Bushels/acre.

What about the Harvested weight ([2]; 7X seed treatment) of the same compound?
The Harvested weight was 105 g.

And the “Yield (Bushels/acre at 13% moisture)” value ([2]; 7X seed treatment)?
Its value is 44.36 Bushels/acre.

And the Harvested weight ([2]; 8X seed treatment)?
Its Harvested weight is 110 g.

And the “Yield (Bushels/acre at 13% moisture)” value ([2]; 8X seed treatment)?
Its value is 46.32 Bushels/acre.

And the Harvested weight ([2]; 9X seed treatment)?
The Harvested weight was 100 g.

What about the “Yield (Bushels/acre at 13% moisture)” value ([2]; 9X seed treatment) of the same compound?
Its value is 43.06 Bushels/acre.

And the Harvested weight ([2]; 10X seed treatment)?
Its Harvested weight is 95 g.

And the “Yield (Bushels/acre at 13% moisture)” value ([2]; 10X seed treatment)?
The value was 42.12 Bushels/acre.
